# From US4894458A, “Quinolonecarboxylic acid derivatives and their preparation” (Kyorin Pharmaceutical Co., Ltd., priority 1986, dated 1990)
# Read-outs that look alike come from different tables or passages of the source.
# Tests used:
# [1] = system: gram-negative and gram-positive bacteria; details: cited from earlier work
# [2] = system: B. thetaiotaomicron (0661); assay: In vitro antibacterial activity (anaerobic bacteria), MIC; type: cell-based; details: anaerobic, Gram -, 10^6 cells/ml
# [3] = system: Bacillus subtilis PCI 219; assay: In vitro antibacterial activity (aerobic bacteria), MIC; type: cell-based; details: PCI219
# [4] = system: Alcaligenes faecalis 0114002; assay: as above; type: cell-based; details: Alcaligenes faecalis, 0114002, aerobic; Gram -; 10^6 cells/ml
# [5] = system: Veillonella parvula KYA 10790; assay: In vitro antibacterial activity (anaerobic bacteria), MIC; type: cell-based; details: KYA10790
# [6] = system: Escherichia coli NIHJ JC-2; assay: In vitro antibacterial activity (aerobic bacteria), MIC; type: cell-based; details: NIHJJC2, aerobic, Gram -, 10^6 cells/ml
# [7] = system: P. aeruginosa IFO 12689; assay: as above; type: cell-based; details: Pseudomonas aeruginosa, IFO12689
# [8] = system: C. ramosum; assay: In vitro antibacterial activity (anaerobic bacteria), MIC; type: cell-based; details: anaerobic, Gram +, 10^6 cells/ml
# [9] = system: Citrobacter freundii IID 976; assay: In vitro antibacterial activity (aerobic bacteria), MIC; type: cell-based
# [10] = system: Bacteroides fragilis GM 7000; assay: In vitro antibacterial activity (anaerobic bacteria), MIC; type: cell-based; details: GM7000
# [11] = system: Yersinia enterocolitica IID 981; assay: microbe, parasite or virus in culture; type: cell-based; details: IID981
# [12] = system: Peptococcus magnus KY 017; assay: In vitro antibacterial activity (anaerobic bacteria), MIC; type: cell-based; details: 10^6 cells/ml
# Description: (§1) Minimal inhibitory concentrations (MICs) were determined in accordance with the method recommended by Japan Society of Chemotherapy.
# [13] = system: Acinetobacter anitratus IID 876; assay: In vitro antibacterial activity (aerobic bacteria), MIC; type: cell-based; details: 10^6 cells/ml
# Description: as §1
# [14] = system: S. epidermidis IID 866; assay: as above; type: cell-based; details: Staphylococcus epidermidis, IID866, Gram +, 10^6 cells/ml
# Description: as §1
# [15] = system: Morganella morganii IID 602; assay: as above; type: cell-based; details: 10^6 cells/ml
# Description: as §1
# [16] = system: Serratia marcescens IID 618; assay: as above; type: cell-based; details: IID618, Gram -, 10^6 cells/ml
# Description: as §1
# [17] = system: Staphylococcus aureus 209 P; assay: as above; type: cell-based; details: Gram +, 10^6 cells/ml
# Description: as §1
# [18] = system: P. mirabilis IID 994; assay: as above; type: cell-based; details: Proteus mirabilis, IID994, Gram -, 10^6 cells/ml
# Description: as §1
# [19] = system: S. aureus IID 670 (Terajima); assay: as above; type: cell-based; details: Staphylococcus aureus, IID670, Gram +, 10^6 cells/ml
# Description: as §1
# [20] = system: Pseudomonas aeruginosa V-1; assay: as above; type: cell-based; details: Gram -, 10^6 cells/ml
# Description: as §1
# [21] = system: K. pneumoniae 1-220S; assay: as above; type: cell-based; details: Klebsiella pneumoniae, 1220S, Gram -, 10^6 cells/ml
# Description: as §1
# [22] = system: B. fragilis 0558; assay: In vitro antibacterial activity (anaerobic bacteria), MIC; type: cell-based; details: Bacteroides fragilis
# [23] = system: B. fragilis 25285; assay: as above; type: cell-based; details: Bacteroides fragilis
# [24] = system: P. aeruginosa IID 1210; assay: In vitro antibacterial activity (aerobic bacteria), MIC; type: cell-based; details: Pseudomonas aeruginosa, IID1210, aerobic; Gram -; 10^6 cells/ml
# [25] = system: Klebsiella pneumoniae KY(GN)6445; assay: as above; type: cell-based
# [26] = system: B. distasonis 8503; assay: In vitro antibacterial activity (anaerobic bacteria), MIC; type: cell-based; details: Parabacteroides distasonis, Gram -, 10^6 cells/ml, read-out: MIC
# [27] = system: Salmonella enteritidis IID 604; assay: In vitro antibacterial activity (aerobic bacteria), MIC; type: cell-based; details: Salmonella enterica
# [28] = system: P. cepacia GIFU 518; assay: as above; type: cell-based; details: Burkholderia cepacia, GIFU518; aerobic; Gram -; 10^6 cells/ml; read-out: MIC
# [29] = system: Pst micros UPI 5464-1; assay: microbe, parasite or virus in culture; type: cell-based; details: anaerobic; Gram +; 10^6 cells/ml
# [30] = system: Enterobacter cloacae IID 977; assay: In vitro antibacterial activity (aerobic bacteria), MIC; type: cell-based; details: IID977
# [31] = system: P. maltophilia GIFU 2491; assay: as above; type: cell-based; details: Stenotrophomonas maltophilia, GIFU2491; aerobic; Gram -; 10^6 cells/ml; read-out: MIC
# [32] = system: Peptostreptococcus anaerobius KYA 27337; assay: In vitro antibacterial activity (anaerobic bacteria), MIC; type: cell-based; details: KYA27337, anaerobic, Gram +, 10^6 cells/ml, read-out: MIC
# [33] = system: E. coli ATCC 10536; assay: In vitro antibacterial activity (aerobic bacteria), MIC; type: cell-based; details: Escherichia coli, ATCC10536, Gram -, 10^6 cells/ml
# Description: as §1
# [34] = system: Shigella sonnei IID 969; assay: as above; type: cell-based; details: IID969, Gram -, 10^6 cells/ml
# Description: as §1
# [35] = system: Proteus vulgaris IFO 3167; assay: as above; type: cell-based; details: IFO3167, Gram -, 10^6 cells/ml
# Description: as §1
# [36] = system: Clostridium difficile I-E; assay: In vitro antibacterial activity (anaerobic bacteria), MIC; type: cell-based; details: Clostridioides difficile; anaerobic; Gram +; 10^6 cells/ml; read-out: MIC
# [37] = system: Propionibacterium acens 11828; assay: as above; type: cell-based; details: anaerobic, Gram +, 10^6 cells/ml, read-out: MIC
# [38] = system: Eubacterium lentum GAI 5242; assay: as above; type: cell-based; details: Eggerthella lenta, GAI5242
# [39] = system: F. varium KYA 8501; assay: as above; type: cell-based; details: Fusobacterium varium, KYA8501; anaerobic; Gram -; 10^6 cells/ml; read-out: MIC
# [40] = system: Fusobacterium necrophorum S-45; assay: as above; type: cell-based; details: S45, anaerobic, Gram -, 10^6 cells/ml, read-out: MIC
# [41] = system: C. perfringens KYA 13123; assay: microbe, parasite or virus in culture; type: cell-based; details: Clostridium perfringens, KYA13123
# [42] = Acinetobacter calcoaceticus, IID876, Gram -, read-out: MIC
# [43] = Morganella morganii, IID602, Gram -, read-out: MIC
# [44] = Pseudomonas aeruginosa, V1, aerobic, read-out: MIC
# [45] = anaerobic, Gram -, 10^6 cells/ml, read-out: MIC
smiles,measurement,setting,value
CCn1cc(C(=O)O)c(=O)c2cc(F)c(N3CCNCC3)cc21 [norfloxacin],antibacterial activity,[1]; gram-negative bacteria including Pseudomonas aeruginosa and gram-positive bacteria,high antibacterial activity
"O=C(O)c1cn(C2CC2)c2cc(N3CCNCC3)c(F)cc2c1=O [CPFX, ciprofloxacin, reference compound]",MIC,[2],25 µg/mL
same,MIC,[3],0.05 µg/mL
same,MIC,[4],0.2 µg/mL
same,MIC,[5],0.2 µg/mL
same,MIC,[6],≤ 0.0063 µg/mL
same,MIC,[7],0.2 µg/mL
same,MIC,[8],6.25 µg/mL
same,MIC,"[9]; aerobic, Gram -, 10^6 cells/ml",0.0063 µg/mL
same,MIC,[10],6.25 µg/mL
same,MIC,[11],0.05 µg/mL
same,MIC,[12]; Gram +,0.20 µg/mL
same,MIC,[13]; [42],0.1 µg/mL
same,MIC,[13]; Gram -,0.20 µg/mL
same,MIC,[14],0.2 µg/mL
same,MIC,[15]; Gram -,0.025 µg/mL
same,MIC,[15]; [43],0.05 µg/mL
same,MIC,[16],0.05 µg/mL
same,MIC,[17],0.2 µg/mL
same,MIC,[18],0.025 µg/mL
same,MIC,[19],0.2 µg/mL
same,MIC,[20]; [44],0.05 µg/mL
same,MIC,[20]; aerobic,0.10 µg/mL
same,MIC,[21],0.05 µg/mL
same,MIC,[22],3.13 µg/mL
same,antibacterial activity compared with norfloxacin,[1],stronger antibacterial activity than norfloxacin
same,antibacterial potency against gram-positive bacteria,[1]; compared with gram-negative bacteria,considerably inferior to that against gram-negative bacteria
same,MIC,[23],3.13 µg/mL
"CCn1cc(C(=O)O)c(=O)c2cc(F)c(N3CCC(N)C3)c(C)c21 (centres unmarked) [Exp. 25, 7-(3-Amino-1-pyrrolidinyl)-1-ethyl-6-fluoro-1,4-dihydro-8-methyl-4-oxo-3-quinolinecarboxylic acid]",MIC,"[2]; Bacteroides thetaiotaomicron, read-out: MIC",6.25 µg/mL
same,MIC,[24],0.78 µg/mL
same,MIC,[25],0.1 µg/mL
same,MIC,[3],0.1 µg/mL
same,MIC,[4],0.78 µg/mL
same,MIC,[5],0.39 µg/mL
same,MIC,[26],6.25 µg/mL
same,MIC,[6],0.0125 µg/mL
same,MIC,"[7]; aerobic, Gram -, 10^6 cells/ml, read-out: MIC",1.56 µg/mL
same,MIC,"[8]; Thomasclavelia ramosa, read-out: MIC",12.5 µg/mL
same,MIC,[27],0.05 µg/mL
same,MIC,"[9]; Citrobacter freundii, IID976",0.05 µg/mL
same,MIC,[10],3.13 µg/mL
same,MIC,[28],1.56 µg/mL
same,MIC,[11],0.1 µg/mL
same,MIC,[29],0.39 µg/mL
same,MIC,"[12]; Finegoldia magna, KY017, Gram +, read-out: MIC",0.39 µg/mL
same,MIC,[30],0.1 µg/mL
same,MIC,[31],1.56 µg/mL
same,MIC,[32],1.56 µg/mL
same,MIC,[33],0.025 µg/mL
same,MIC,[13]; [42],0.78 µg/mL
same,MIC,[14],0.2 µg/mL
same,MIC,[15]; [43],0.2 µg/mL
same,MIC,[16],0.05 µg/mL
same,MIC,[17],0.2 µg/mL
same,MIC,[18],0.05 µg/mL
same,MIC,[19],0.2 µg/mL
same,MIC,[34],0.05 µg/mL
same,MIC,[20]; [44],0.39 µg/mL
same,MIC,[35],0.0125 µg/mL
same,MIC,[21],0.1 µg/mL
same,MIC,[22]; [45],1.56 µg/mL
same,MIC,[36],6.25 µg/mL
same,MIC,[37],12.5 µg/mL
same,MIC,[38],0.78 µg/mL
same,MIC,[39],6.25 µg/mL
same,MIC,[23]; [45],1.56 µg/mL
same,MIC,[40],1.56 µg/mL
same,MIC,[41],0.78 µg/mL
